Test system: Human neonatal epidermal keratinocytes (HEK)
Assay: Evaluation of calcium influx in human neonatal epidermal keratinocytes (fluo 3-AM, confocal microscope)
Assay type: cell-based
Conditions: theanine 2.5 mM, theanine derivative 0.5 mM, 5 minutes, then fluo 3-AM 15 minutes, FIG. 4
Procedure: Stabilized human neonatal epidermal keratinocytes (HEK, Lonza, NHEK-Neo-Neonatal Normal Human Epidermal Keratinocytes, Pooled) are dispensed in a confocal dish at a density of 2×10^4 cells per well and treated with theanine (2.5 mM) and the theanine derivative (0.5 mM) for 5 minutes and then with […] fluo 3-AM for 15 minutes. The fluo 3 decomposed in the cells and combined with calcium is observed with a confocal microscope (Nikon, Japan) to measure the difference of fluorescence and evaluate the migration of calcium in the cells.

CCNC(=O)CC[C@H](N)C(=O)O [theanine]
migration of calcium in the cells: definitely different behaviors from each other

From US9192791B2, “Topical composition containing theanine derivatives for use on skin” (AMOREPACIFIC CORPORATION, priority 2011, dated 2015)
